Data published in US20260248763A1 (BIO GENUINE (SHANGHAI) BIOTECH CO., LTD, priority 2023, published 2026).
pIC50: −log10 of the molar value.

Legend:
[1] = target: T1, OTR (Homo sapiens, UniProt P30559); assay: Ca2+ mobilization in cells stably expressing OTR (FLIPR, antagonist mode); assay type: cell-based; settings: OTR/HEK293 stably transfected cell line
T1 construct: expressed in transfected cells; host or cells: OTR/HEK293 stably transfected cell line
T1 sequence (P30559 1-389): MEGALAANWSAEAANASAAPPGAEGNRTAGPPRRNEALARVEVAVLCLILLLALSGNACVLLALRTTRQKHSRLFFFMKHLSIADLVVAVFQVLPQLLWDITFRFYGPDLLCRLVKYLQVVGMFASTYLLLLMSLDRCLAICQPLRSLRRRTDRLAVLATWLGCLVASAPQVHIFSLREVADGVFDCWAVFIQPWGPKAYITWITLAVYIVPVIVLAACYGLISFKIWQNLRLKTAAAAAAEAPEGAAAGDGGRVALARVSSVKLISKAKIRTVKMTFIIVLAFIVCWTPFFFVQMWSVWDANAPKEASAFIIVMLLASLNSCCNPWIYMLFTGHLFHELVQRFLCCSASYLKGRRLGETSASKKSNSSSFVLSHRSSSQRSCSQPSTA
Procedure, shortened: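 Antagonist mode: test compounds in 10-point 3-fold series were added on FLIPR to Fluo-4-loaded HEK293 cells stably expressing OTR, followed by reference agonist at its EC80, determined beforehand. The Max-Min calcium fluorescence response was fitted in Prism.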

[2] = target: T2, V1aR (Homo sapiens, UniProt P37288); assay: Ca2+ mobilization in cells stably expressing V1aR (FLIPR, antagonist mode); assay type: cell-based; settings: V1a-CHO stably transfected cell line
T2 construct: expressed in transfected cells; host or cells: V1a-CHO stably transfected cell line
T2 sequence (P37288 whole entry, species assumed): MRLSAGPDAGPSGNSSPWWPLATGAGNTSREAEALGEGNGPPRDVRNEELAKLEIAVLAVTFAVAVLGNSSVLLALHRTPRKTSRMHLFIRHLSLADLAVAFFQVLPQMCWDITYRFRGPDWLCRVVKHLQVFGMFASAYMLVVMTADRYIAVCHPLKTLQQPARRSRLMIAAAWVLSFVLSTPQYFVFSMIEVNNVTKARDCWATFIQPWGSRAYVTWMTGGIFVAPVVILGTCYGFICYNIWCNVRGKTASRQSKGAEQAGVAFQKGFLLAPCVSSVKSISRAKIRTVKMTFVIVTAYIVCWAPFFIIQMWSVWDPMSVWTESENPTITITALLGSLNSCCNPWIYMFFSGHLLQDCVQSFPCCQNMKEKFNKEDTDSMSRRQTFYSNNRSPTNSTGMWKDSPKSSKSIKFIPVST

| SMILES | pIC50 [1] | pIC50 [2] |
| --- | --- | --- |
| CON=C1CC(CO)N(C(=O)c2ccc(-c3cccc(C#N)c3C)c3c2OCO3)C1 (single isomer, unassigned) [Example C0099] | 7.76 | 5.28 |
| CO/N=C1/C[C@@H]([C@@H](C)O)N(C(=O)c2ccc(-c3cccc(C#N)c3C)cc2)C1 (single isomer, unassigned) [Example C0112] | 8.12 | 6.22 |
| CO/N=C1/C[C@@H](CO)N(C(=O)c2ccc(-c3cccc(C#N)c3Cl)cc2)C1 [Example A0203, 2-Chloro-3-(4-[(2S, 4Z)-2-(hydroxymethyl)-4-(methoxyimino)pyrrolidine-1-carbonyl]phenyl)benzonitrile] | 7.68 | 5.87 |
| CO/N=C1/C[C@@H](CO)N(C(=O)c2ccc(-c3cccc(C#N)c3C)cc2)C1 [Example C0058, (S, Z)-4′-(2-(Hydroxymethyl)-4-(methoxyimino)pyrrolidine-1-carbonyl)-2-methyl-[1,1′-biphenyl]-3-carbonitrile] | 7.75 | 5.65 |
| CO/N=C1/C[C@@H](CO)N(C(=O)c2ccc(-c3cc(F)cc(C#N)c3C)c3c2OCCO3)C1 [Example C0152, (S,Z)-5-Fluoro-3-(8-(2-(hydroxymethyl)-4-(methoxyimino)pyrrolidine-1-carbonyl)-2,3-dihydrobenzo[b][1,4]dioxin-5-yl)-2-methylbenzonitrile] | 8.18 | 5.01 |
